# From patent publication US20250144083A1, “METHODS AND COMPOSITIONS FOR TREATING CANCER IN TAXANE-RESISTANT PATIENTS” (MODRA PHARMACEUTICALS B.V., priority 2022, published 2025)
# Where “and” joins values, the source holds several entries; their conditions need not be identical. Equal values may be shown once. Read-outs that look alike come from different tables or passages of the source.
# Experiments:
# Type in all cases: cell-based
# [1] = tested on: DU-145 prostate cancer cells; assay: 3D clonogenic assay, parental DU-145; details: Homo sapiens, read-out: IC50 value of docetaxel
# Protocol: (§1) For the single agent efficacy experiment, a master stock solution of cabazitaxel was prepared by dissolving compound powder in DMSO at a concentration of 10 mM. From this a working stock solution of 0.1 mM (330-fold the highest test concentration) was prepared. Small aliquots of this solution were stored at −20° C. On each day of an experiment, a frozen aliquot of the working stock solution was thawed and stored at room temperature prior to and during treatment. First, serial half-log dilutions of the working stock solution were prepared in DMSO. These dilutions were then diluted 1:22 into cell culture medium in an intermediate dilution plate. Finally, 10 μl taken from the intermediate dilution plate were transferred to 140 μl/well of the final assay plate. Thus, the DMSO working stock was diluted 1:330, and the DMSO concentration in the assay was 0.3% v/v.
# (§2) For combination experiments, working stock solutions of docetaxel, ritonavir, elacridar, and cabazitaxel were prepared in DMSO at concentrations of 660-fold the highest test concentration used. Small aliquots of this stock solution were stored at −20° C. On each day of an experiment, a frozen aliquot of the working stock solutions was thawed and stored at room temperature prior to and during treatment. First, 1:2 dilutions of 660-fold concentrated working stocks were done in DMSO (in case of monotherapy controls), or equal amounts of the compound working stocks were mixed (in case of drug combinations). Then, different dilutions of these 330-fold concentrated solutions were done in DMSO to give a 8*2 matrix combination layout. The DMSO dilutions were further diluted 1:22 into cell culture medium (IMDM, supplemented with 20% (v/v) fetal calf serum, 50 μg/ml gentamicin) in an intermediate dilution plate. Finally, 10 μl taken from the intermediate dilution plate were transferred to 140 μl of cells and medium per well of the final assay plate. Thus, the DMSO dilutions used for the mono- and the combination-treatment were diluted 1:330, and the DMSO concentration in the assay was 0.3% v/v.
# (§3) DU-145 DOC10 was generated from DU-145 and 22Rv1 DOC8 was generated from 22Rv1. 22Rv1 was obtained from American Type Culture Collection (ATCC, Rockville, MD, USA), whereas DU-145 was obtained from National Cancer Institute (NCI, Bethesda, MD, USA).
# (§4) Tumour cell lines were grown at 37° C. in a humidified atmosphere with 5% CO2 in RPMI 1640 medium (Biochrom) supplemented with 10% (v/v) fetal calf serum and 50 μg/ml gentamicin. Docetaxel resistant sublines were cultured in the presence of 8 nM (22Rv1) or 10 nM docetaxel (DU-145). The cells were routinely passaged once or twice weekly and maintained in culture for up to 20 passages. For the assay, cells were harvested using TrypLE and the percentage of viable cells was determined by the CASY TT cell counter (OMNI Life Science).
# (§5) The clonogenic assay was carried out in a 96 well plate format using ultra low attachment plates. For each test, cells were prepared and assay plates were prepared as follows: each test well contained a layer of semi-solid medium with tumour cells (50 μl), and a second layer of medium supernatant with or without test compound (100 μl). The cell layer consisted of 2·10^3 to 3·10^3 tumour cells per well, which were seeded in 50 μl/well cell culture medium (IMDM, supplemented with 20% (v/v) fetal calf serum, 50 μg/ml gentamicin, and 0.4% (w/v) agar). After 24 h, the soft-agar layer was covered with 90 μl of the same culture medium without agar, and 10 μl of control medium or test compound after serial dilution in DMSO and transfer in cell culture medium were added, and left on the cells for the duration of the experiment (continuous exposure, 100 μl drug overlay). Every plate included six untreated control wells and drug-treated groups. Duplicate values were obtained by testing single values per condition on one plate. […]
# [2] = tested on: DU-145 DOC10 prostate cancer cells; assay: 3D clonogenic assay, docetaxel-resistant DU-145 DOC10; details: for Relative Resist to docetaxel: compared to parental DU-145 cells without elacridar; for Relative Resistance to docetaxel: compared to parental DU-145 cells without ritonavir; for IC50: Homo sapiens, read-out: IC50 value of docetaxel
# Protocol: as §1, §2, §3, §4, §5
# [3] = tested on: 22Rv1 prostate cancer cells; assay: 3D clonogenic assay, parental 22Rv1; details: Homo sapiens; 22Rv1, without elacridar; from previously performed experiment; read-out: IC50 value of docetaxel
# Protocol: as §1
# as §2, with “Finally, 10 μl taken from the intermediate dilution plate were transferred to 140 μl of cells and medium per well of the final assay plate. Thus, the DMSO dilutions used for the mono- and the combination-treatment were diluted 1:330, and the DMSO concentration in the assay was 0.3% v/v.” left out
# Tumour cell lines were grown at 37° C. in a humidified atmosphere with 5% CO2 in RPMI 1640 medium (Biochrom) supplemented with 10% (v/v) fetal calf serum and 50 μg/ml gentamicin. […] For the assay, cells were harvested using TrypLE and the percentage of viable cells was determined by the CASY TT cell counter (OMNI Life Science). […]
# [4] = tested on: 22Rv1 DOC8 prostate cancer cells; assay: 3D clonogenic assay, docetaxel-resistant 22Rv1 DOC8; details: for Relative Resist to docetaxel: compared to parental 22Rv1 cells without elacridar; for IC50: Homo sapiens
# Protocol: as §1, §2, §3, §4, §5
# [5] = tested on: DU-145 DOC10 prostate cancer cells; assay: 2D culture docetaxel resistance, DU-145 DOC10 vs DU-145; details: 2D setup, DU-145 cells exposed to docetaxel for 3 months
# [6] = tested on: 22Rv1 DOC8 prostate cancer cells; assay: 2D culture docetaxel resistance, 22Rv1 DOC8 vs 22Rv1; details: 2D setup, 22Rv1 cells exposed to docetaxel for 3 months
structure (smiles),measurement,setting,value
CC(=O)O[C@@]12CO[C@@H]1C[C@H](O)[C@@]1(C)C(=O)[C@H](O)C3=C(C)[C@@H](OC(=O)[C@H](O)[C@@H](NC(=O)OC(C)(C)C)c4ccccc4)C[C@@](O)([C@@H](OC(=O)c4ccccc4)[C@H]21)C3(C)C [docetaxel],IC50,"[1]; DU-145, DU-145, 0.3 μM elacridar",1.1 nM
same,IC50,"[1]; DU-145, DU-145, 1 μM elacridar",1.1 nM
same,IC50,"[1]; DU-145, DU-145, 1 μM ritonavir",1.8 nM
same,IC50,"[1]; DU-145, DU-145, 10 μM ritonavir",1.7 nM
same,IC50,"[1]; DU-145, DU-145, without elacridar (elacridar experiment)",1.1 nM
same,IC50,"[1]; DU-145, DU-145, without ritonavir",2.9 nM
same,Relative Resist to docetaxel,"[2]; DU-145 DOC10, 0.3 μM elacridar",1.7
same,Relative Resist to docetaxel,"[2]; DU-145 DOC10, 1 μM elacridar",1.5
same,Relative Resistance to docetaxel,"[2]; DU-145 DOC10, 1 μM ritonavir",3.0
same,fold lower IC50 value (increase in sensitivity to docetaxel),"[2]; DU-145 DOC10, 10 μM ritonavir",3.4 fold
same,Relative Resistance to docetaxel,"[2]; DU-145 DOC10, 10 μM ritonavir",1.0
same,fold lower IC50 value (increase in sensitivity),"[2]; DU-145 DOC10, 10 μM ritonavir, cabazitaxel experiment (FIG. 10)",2.5 fold
same,Relative Resist to docetaxel,[2]; DU-145 DOC10 without elacridar,11
same,Relative Resistance to docetaxel,"[2]; DU-145 DOC10 without ritonavir, 3D setup",3.3
same,IC50,"[2]; DU-145, DU-145 DOC10, 0.3 μM elacridar",1.9 nM
same,IC50,"[2]; DU-145, DU-145 DOC10, 1 μM elacridar",1.6 nM
same,IC50,"[2]; DU-145, DU-145 DOC10, 1 μM ritonavir",8.8 nM
same,IC50,"[2]; DU-145, DU-145 DOC10, 10 μM ritonavir",2.8 nM
same,IC50,"[2]; DU-145, DU-145 DOC10, without elacridar (elacridar experiment)",11.7 nM
same,IC50,"[2]; DU-145, DU-145 DOC10, without ritonavir",9.5 nM
same,IC50,[3],1.3 nM
same,fold decrease of relative IC50 value of docetaxel,"[4]; 31.6 μM ritonavir, cell line not given",84 fold
same,"resistance to docetaxel, fold","[4]; 3D setup (clonogenic assay), 22Rv1 DOC8 vs parental",42 fold
same,Relative Resist to docetaxel,"[4]; 22Rv1 DOC8, 0.3 μM elacridar",1.1
same,Relative Resist to docetaxel,"[4]; 22Rv1 DOC8, 1 μM elacridar",1
same,fold lower IC50 value (increase in sensitivity),"[4]; 22Rv1 DOC8, 32 μM ritonavir, cabazitaxel experiment (FIG. 12)",14 fold
same,fold lower IC50 value (increase in sensitivity to docetaxel),"[4]; 22Rv1 DOC8, 0.3 and 1 μM elacridar",100 fold
same,Relative Resist to docetaxel,[4]; 22Rv1 DOC8 without elacridar,103
same,IC50,"[4]; 22Rv1, 31.6 μM ritonavir, cell line not given, read-out: relative IC50 value of docetaxel",2.6 nM
same,IC50,"[4]; 22Rv1, 22Rv1 DOC8, 0.3 μM elacridar, read-out: IC50 value of docetaxel",1.4 nM
same,IC50,"[4]; 22Rv1, 22Rv1 DOC8, 1 μM elacridar, read-out: IC50 value of docetaxel",1.3 nM
same,IC50,"[4]; 22Rv1, 22Rv1 DOC8, 32 μM ritonavir, read-out: Docetaxel IC50 value",3 nM
same,IC50,"[4]; 22Rv1, 22Rv1 DOC8, without elacridar (elacridar experiment), read-out: IC50 value of docetaxel",134 nM
same,IC50,"[4]; 22Rv1, 22Rv1 DOC8, without ritonavir, read-out: Docetaxel IC50 value",202 nM
same,IC50,"[4]; 22Rv1, without ritonavir, cell line not given, read-out: relative IC50 value of docetaxel",219 nM
same,"resistance to docetaxel: fold increase in IC50 value compared to parental, untreated cells",[5],~20 fold and 21 fold and 22 fold
same,"resistance to docetaxel: fold increase in IC50 value compared to parental, untreated cells",[6],> 100 fold and 105 fold and 134 fold
